# The Kinase Knowledgebase extract (Sharma et al. 2016)
# Target: EGFR (UniProt P00533)
# Sequence (P00533 whole entry, looked up): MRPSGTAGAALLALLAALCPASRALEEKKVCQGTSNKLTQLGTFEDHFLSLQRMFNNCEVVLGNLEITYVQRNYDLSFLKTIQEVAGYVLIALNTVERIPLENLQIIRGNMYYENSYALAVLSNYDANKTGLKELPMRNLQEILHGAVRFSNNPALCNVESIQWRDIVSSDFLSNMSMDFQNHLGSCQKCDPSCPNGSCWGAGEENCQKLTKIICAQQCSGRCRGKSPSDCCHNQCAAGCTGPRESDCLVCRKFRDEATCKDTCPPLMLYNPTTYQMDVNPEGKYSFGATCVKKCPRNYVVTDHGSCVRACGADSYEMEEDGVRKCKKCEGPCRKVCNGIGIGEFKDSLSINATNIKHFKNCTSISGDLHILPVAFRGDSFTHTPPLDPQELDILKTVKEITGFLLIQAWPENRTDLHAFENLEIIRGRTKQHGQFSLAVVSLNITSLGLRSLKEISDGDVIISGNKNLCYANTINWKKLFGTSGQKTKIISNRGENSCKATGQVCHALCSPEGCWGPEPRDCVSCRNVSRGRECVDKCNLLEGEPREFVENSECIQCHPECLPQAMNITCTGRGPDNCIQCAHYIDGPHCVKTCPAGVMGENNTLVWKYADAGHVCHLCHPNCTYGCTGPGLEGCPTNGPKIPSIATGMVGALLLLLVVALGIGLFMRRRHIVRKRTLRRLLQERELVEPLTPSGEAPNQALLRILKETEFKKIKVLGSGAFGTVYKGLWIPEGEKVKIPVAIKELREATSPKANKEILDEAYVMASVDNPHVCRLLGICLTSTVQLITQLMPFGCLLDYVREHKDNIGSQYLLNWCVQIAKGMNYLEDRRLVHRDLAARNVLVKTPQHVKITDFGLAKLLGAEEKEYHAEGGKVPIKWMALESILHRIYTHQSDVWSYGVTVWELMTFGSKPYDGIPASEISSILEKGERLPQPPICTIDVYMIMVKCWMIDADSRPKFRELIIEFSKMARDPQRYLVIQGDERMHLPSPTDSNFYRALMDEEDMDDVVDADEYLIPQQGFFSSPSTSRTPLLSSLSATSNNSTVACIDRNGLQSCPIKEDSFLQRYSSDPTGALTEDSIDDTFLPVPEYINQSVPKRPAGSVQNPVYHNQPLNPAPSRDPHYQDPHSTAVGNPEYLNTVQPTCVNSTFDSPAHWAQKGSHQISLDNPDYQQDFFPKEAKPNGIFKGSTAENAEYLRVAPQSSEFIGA
row,IC50 [nM],Compound
1,< 50,COc1cc2c(Nc3ccc(Cl)c(Cl)c3)ncnc2cc1OC[C@@H]1CN2CCC[C@H]2CO1
2,< 50,COc1cc2c(Nc3ccc(Cl)c(Cl)c3)ncnc2cc1OCC1CN(C(C)=O)CCO1 (stereo not given)
3,< 50,COc1cc2c(Nc3ccc(F)c(F)c3)ncnc2cc1O[C@@H]1CO[C@@H]2[C@H]1OC[C@H]2F
4,< 50,COc1cc2c(Nc3ccc(C)c(Br)c3)ncnc2cc1OCC1CN(C)CCO1 (stereo not given)
5,< 50,COc1cc2c(Nc3ccc(Br)c(Cl)c3)ncnc2cc1O[C@H]1CO[C@@H]2[C@H]1OC[C@@H]2NC(C)=O
6,< 50,COc1cc2c(Nc3ccc(Cl)c(Cl)c3)ncnc2cc1OCC1CN(C(C)C(C)=O)CCO1 (stereo not given)
7,< 50,CCCCS(=O)(=O)N1CCOC(COc2cc3ncnc(Nc4ccc(Cl)c(Cl)c4)c3cc2OC)C1 (stereo not given)
8,< 50,COc1cc2c(Nc3cccc(Cl)c3F)ncnc2cc1O[C@H]1CO[C@H]2[C@@H]1OC[C@@H]2OC
9,< 50,COc1cc2c(Nc3ccc(F)c(Cl)c3F)ncnc2cc1O[C@H]1CO[C@H]2[C@@H]1OC[C@@H]2OC
10,< 50,COc1cc2c(Nc3ccc(Cl)c(Cl)c3)ncnc2cc1OCC1CC1
11,< 50,COc1cc2c(Nc3ccc(F)cc3F)ncnc2cc1O[C@@H]1CO[C@@H]2[C@H]1OC[C@H]2F
12,< 50,COc1cc2c(Nc3ccc(Cl)c(Cl)c3)ncnc2cc1OCC1CN(CCF)CCO1 (stereo not given)
13,< 50,COc1cc2c(Nc3ccc(Cl)c(Cl)c3N3CCN(C)CC3)ncnc2cc1O[C@H]1CO[C@@H]2[C@H]1OC[C@@H]2F
14,< 50,COc1cc2c(Nc3ccc(Cl)c(Cl)c3)ncnc2cc1OCc1nc(N2CCNCC2)no1
15,< 50,COc1cc2c(Nc3ccc(Cl)c(Cl)c3)ncnc2cc1OC[C@H]1CN2CCC[C@H]2CO1
16,< 50,COc1cc2c(Nc3ccc(Cl)c(Cl)c3)ncnc2cc1OCc1noc(C2CCCN2C)n1 (stereo not given)
17,< 50,COc1cc2c(Nc3ccc(Br)c(Cl)c3)ncnc2cc1O[C@@H]1CO[C@@H]2[C@H]1OC[C@H]2NS(C)(=O)=O
18,< 50,COc1cc2c(Nc3ccc(Cl)c(Cl)c3)ncnc2cc1OCC1CN(CCOCCO)CCO1 (stereo not given)
19,< 50,COc1cc2c(Nc3ccc(Cl)c(Cl)c3)ncnc2cc1OC[C@H]1C[C@@H]2CN(C)C[C@@H]2C1
20,< 50,COc1cc2c(Nc3ccc(Br)c(Cl)c3)ncnc2cc1O[C@H]1CO[C@@H]2[C@H]1OC[C@@H]2SC
21,< 50,COc1cc2c(Nc3ccc(Cl)c(Cl)c3)ncnc2cc1OCC1CN(C2CCOCC2)CCO1 (stereo not given)
22,< 50,COc1cc2c(Nc3ccc(Cl)c(Cl)c3)ncnc2cc1OCC1CN(C(=O)c2cccc3ccccc23)CCO1 (stereo not given)
23,< 50,COc1cc2c(Nc3ccc(F)c(Cl)c3F)ncnc2cc1OC[C@@H]1CN2CCC[C@H]2CO1

row,IC50 [nM],Compound
1,< 50,COc1cc2c(Nc3ccc(Cl)c(Cl)c3)ncnc2cc1OCc1c(F)cccc1F
2,< 50,COc1cc2c(Nc3ccc(Cl)c(Cl)c3)ncnc2cc1OCC(=O)N1CCOCC1
3,< 50,CCN1CCCC1c1nc(COc2cc3ncnc(Nc4ccc(Cl)c(Cl)c4)c3cc2OC)no1 (stereo not given)
4,< 50,COc1cc2c(Nc3cc(F)c(Oc4ccc(Cl)cc4)c(F)c3)ncnc2cc1O[C@@H]1CO[C@@H]2[C@H]1OC[C@H]2F
5,50 to 1000,COc1cc2c(Nc3ccc(Cl)c(Cl)c3)ncnc2cc1OCc1ccc2nc(C(F)(F)F)cc(Cl)c2c1
6,< 50,COc1cc2c(Nc3ccc(Cl)c(Cl)c3)ncnc2cc1OCc1nccn1Cc1ccccc1
7,< 50,COc1cc2c(Nc3ccc(Cl)c(Cl)c3)ncnc2cc1OCc1nc([C@@H]2CCCN2C)no1
8,< 50,CCCN1CCOC(COc2cc3ncnc(Nc4ccc(Cl)c(Cl)c4)c3cc2OC)C1 (stereo not given)
9,< 50,COc1cc2c(Nc3ccc(Cl)c(Cl)c3)ncnc2cc1OCc1nc(N2CCOCC2)no1
10,< 50,CCN1CCN(c2noc(COc3cc4ncnc(Nc5ccc(Cl)c(Cl)c5)c4cc3OC)n2)CC1
11,< 50,COc1cc2c(Nc3ccc(Br)cc3)ncnc2cc1O[C@@H]1CO[C@@H]2[C@H]1OC[C@H]2F
12,< 50,CCN1CCc2nc(COc3cc4ncnc(Nc5ccc(Cl)c(Cl)c5)c4cc3OC)sc2C1
13,< 50,COc1cc2c(Nc3cc(Cl)c(Br)cc3F)ncnc2cc1O[C@H]1CO[C@H]2[C@@H]1OC[C@@H]2OC
14,< 50,COc1cc2c(Nc3ccc(Cl)c(Cl)c3F)ncnc2cc1OCC1CN(C)C(C)(C)CO1 (stereo not given)
15,< 50,CCC(=O)N1CCOC(COc2cc3ncnc(Nc4ccc(Cl)c(Cl)c4)c3cc2OC)C1 (stereo not given)
16,< 50,COc1cc2c(Nc3ccc(Cl)c(Cl)c3)ncnc2cc1OCC1CCCO1 (stereo not given)
17,< 50,CCN(CC)c1ccc(-c2csc(COc3cc4ncnc(Nc5ccc(Cl)c(Cl)c5)c4cc3OC)n2)cc1
18,< 50,COc1cc2c(Nc3ccc(Cl)c(Cl)c3)ncnc2cc1OCC1CN(Cc2ccc(F)cc2)CCO1 (stereo not given)
19,< 50,CNC(=NC#N)N1CCOC(COc2cc3ncnc(Nc4ccc(Cl)c(Cl)c4)c3cc2OC)C1 (stereo not given)
20,< 50,COc1cc2c(Nc3ccc(Cl)c(Cl)c3)ncnc2cc1OCc1nc(CN2CCOCC2)cs1
21,< 50,COc1cc2c(Nc3ccc(Cl)c(Cl)c3)ncnc2cc1OCC1CN(C(=O)C2CCCC2)CCO1 (stereo not given)
22,< 50,COc1cc2c(Nc3ccc(Cl)c(Cl)c3)ncnc2cc1OCC1CN(CC(N)=O)CCO1 (stereo not given)
23,< 50,COc1cc2c(Nc3cc(Cl)c(Cl)cc3F)ncnc2cc1O[C@H]1CO[C@H]2[C@@H]1OC[C@@H]2OC

row,IC50 [nM],Compound
1,< 50,COc1cc2c(Nc3ccc(Cl)c(Cl)c3)ncnc2cc1OCCC1CN(C(=O)OC(C)(C)C)C(C)(C)CO1 (stereo not given)
2,50 to 1000,COc1cc2c(Nc3ccc(Cl)c(Cl)c3)ncnc2cc1OCc1csc(-c2ccc(C(F)(F)F)cc2)n1
3,< 50,COc1cc2c(Nc3ccc(Cl)c(Cl)c3)ncnc2cc1OCC1CN(C2CCC2)CCO1 (stereo not given)
4,< 50,COc1cc2c(Nc3ccc(Br)c(Cl)c3F)ncnc2cc1OCC1CO[C@@H]2[C@@H](OC)CO[C@H]12 (stereo not given in full)
5,< 50,COc1cc2c(Nc3cc(Cl)c(Br)cc3F)ncnc2cc1OC[C@H]1C[C@@H]2CN(C)C[C@@H]2C1
6,< 50,COc1cc2c(Nc3ccc(Cl)cc3)ncnc2cc1O[C@@H]1CO[C@@H]2[C@H]1OC[C@H]2F
7,< 50,COc1cc2c(Nc3ccc(Cl)c(Cl)c3)ncnc2cc1OC[C@H]1CN2CCC[C@@H]2CO1
8,< 50,CCNC(=NC#N)N1CCOC(COc2cc3ncnc(Nc4ccc(Cl)c(Cl)c4)c3cc2OC)C1 (stereo not given)
9,< 50,COc1cc2c(Nc3cc(Cl)c(Br)cc3F)ncnc2cc1OC[C@@H]1CN2CCC[C@H]2CO1
10,< 50,COc1cc2c(Nc3ccc(Cl)c(Cl)c3)ncnc2cc1OCC1CCC1
11,< 50,CCCCCC(=O)N1CCOC(COc2cc3ncnc(Nc4ccc(Cl)c(Cl)c4)c3cc2OC)C1 (stereo not given)
12,< 50,COc1cc2c(Nc3ccc(Cl)c(Cl)c3)ncnc2cc1OCC1CN(C(=O)c2ccoc2)CCO1 (stereo not given)
13,< 50,COc1cc2c(Nc3ccc(Cl)c(Cl)c3)ncnc2cc1OCc1nnc(-c2ccc(C)cc2)o1
14,< 50,CCN1CCN(CC)C(COc2cc3ncnc(Nc4ccc(Cl)c(Cl)c4)c3cc2OC)C1 (stereo not given)
15,< 50,CCCCc1ccc(C(=O)N2CCOC(COc3cc4ncnc(Nc5ccc(Cl)c(Cl)c5)c4cc3OC)C2)cc1 (stereo not given)
16,< 50,COc1cc2c(Nc3ccc(Cl)c(Cl)c3)ncnc2cc1OCc1csc(N(C)C)n1
17,< 50,COc1cc2c(Nc3ccc(Br)c(Cl)c3F)ncnc2cc1OC[C@H]1C[C@@H]2CN(C)C[C@@H]2C1
18,< 50,COc1cc2c(Nc3ccc(Br)c(Cl)c3)ncnc2cc1O[C@H]1CO[C@H]2[C@@H]1OC[C@@]21COC(C)(C)O1
19,< 50,COc1cc2c(Nc3ccc(Br)c(F)c3F)ncnc2cc1OCC1CN(C)CCO1 (stereo not given)
20,< 50,COc1cc2c(Nc3ccc(Br)c(Cl)c3Cl)ncnc2cc1OC[C@H]1C[C@@H]2CN(C)C[C@@H]2C1
21,< 50,COc1cc2c(Nc3cccc(Cl)c3F)ncnc2cc1O[C@@H]1CO[C@@H]2[C@H]1OC[C@H]2F
22,< 50,CCCCCCCCN1CCOC(COc2cc3ncnc(Nc4ccc(Cl)c(Cl)c4)c3cc2OC)C1 (stereo not given)
23,< 50,COc1cc(OC)c(Nc2ncnc3cc(O[C@@H]4CO[C@@H]5[C@H]4OC[C@H]5F)c(OC)cc23)cc1Cl

row,IC50 [nM],Compound
1,< 50,COc1cc2c(Nc3ccc(Cl)c(Cl)c3)ncnc2cc1OCc1noc(-c2ccccc2)n1
2,< 50,COc1cc2c(Nc3ccc(Cl)c(C(F)(F)F)c3)ncnc2cc1O[C@@H]1CO[C@@H]2[C@H]1OC[C@H]2F
3,< 50,CCCCN1CCOC(COc2cc3ncnc(Nc4ccc(Cl)c(Cl)c4)c3cc2OC)C1 (stereo not given)
4,< 50,COc1cc2c(Nc3ccc(Cl)c(Br)c3)ncnc2cc1OCC1CN(C)CCO1 (stereo not given)
5,< 50,COc1cc2c(Nc3cc(Cl)c(Br)cc3F)ncnc2cc1OCC1CN(C)CCO1 (stereo not given)
6,< 50,COc1cc2c(Nc3ccc(Br)c(Cl)c3F)ncnc2cc1OC[C@@H]1CN(C)CC(=O)N1C
7,50 to 1000,COc1cc2c(Nc3ccc(Cl)c(Cl)c3)ncnc2cc1OCc1nc(-c2ccc(C(C)(C)C)cc2)no1
8,< 50,COc1cc2c(Nc3cc(F)c(Br)c(Cl)c3)ncnc2cc1O[C@@H]1CO[C@@H]2[C@H]1OC[C@H]2F
9,< 50,CCS(=O)(=O)N1CCOC(COc2cc3ncnc(Nc4ccc(Cl)c(Cl)c4)c3cc2OC)C1 (stereo not given)
10,< 50,COc1cc2c(Nc3ccc(Cl)c(Cl)c3)ncnc2cc1OCC1CN(S(C)(=O)=O)CCCO1 (stereo not given)
11,< 50,COc1cc2c(Nc3ccc(Cl)c(Cl)c3)ncnc2cc1OC[C@@H]1O[C@@H](OC)[C@@H](O)[C@@H](O)[C@H]1O
12,< 50,COCCOc1cc2c(Nc3ccc(Cl)c(Cl)c3)ncnc2cc1OCC1CNCCO1 (stereo not given)
13,< 50,COc1cc2c(Nc3cccc(Cl)c3C)ncnc2cc1O[C@H]1CO[C@H]2[C@@H]1OC[C@@H]2OC
14,< 50,COc1cc2c(Nc3ccc(F)c(Cl)c3F)ncnc2cc1OC[C@@H]1CN2CCOC[C@H]2CO1
15,< 50,COc1cc2c(Nc3ccc(Cl)c(Cl)c3)ncnc2cc1OCc1csc([C@@H]2CSCN2)n1
16,< 50,COc1cc2c(Nc3ccc(F)c(Cl)c3F)ncnc2cc1OCC1CN(C)C(C)(C)CO1 (stereo not given)
17,< 50,COc1cc2c(Nc3ccc(Cl)c(Cl)c3)ncnc2cc1OCC1CN(S(=O)(=O)c2ccc(C)cc2)CCO1 (stereo not given)
18,< 50,COc1cc2c(Nc3ccc(Cl)c(Cl)c3C)ncnc2cc1OCC1CN(C)CCO1 (stereo not given)
19,< 50,CCN1CCC[C@H]1c1nc(COc2cc3ncnc(Nc4ccc(Cl)c(Cl)c4)c3cc2OC)cs1
20,< 50,CCCCCCN1CCOC(COc2cc3ncnc(Nc4ccc(Cl)c(Cl)c4)c3cc2OC)C1 (stereo not given)

row,Compound,IC50 [nM]
1,COc1cc2c(Nc3ccc(Cl)c(Cl)c3)ncnc2cc1OCCC1CC2CCC(C1)N2C (stereo not given),< 50
